Tests used:
[1] = tested on: Zmpste24−/− mice; assay: Survival and body weight of Zmpste24−/− mice treated via drinking water; assay type: in vivo, mouse; settings: NAC 1 mg/ml in drinking water
Experimental: (§1) Zmpste24^−/− mice have been described previously (Pendas et al., 2002). Mouse experimentation was performed in accordance with the guidelines of the Committee on the Use of Live Animals in Teaching and Research (CULATR) at the University of Hong Kong. New-born Zmpste24^−/− mice and wild-type controls were fed with resveratrol (20 μg/ml) or N-acetyl Cysteine (1 mg/ml) in drinking water. The survival of resveratrol-treated, NAC-treated, or vehicle-treated Zmpste24^−/− mice was recorded and their body weight was monitored weekly. The trabecular bone organization and bone mineral density were determined by micro-CT. The survival rate was analyzed by Kaplan-Meier method and statistical comparison was performed by Log-rank (Mantel-Cox) Test.
Briefly, resveratrol was supplemented at a concentration of 20 μg/ml in drinking water. Four months after treatment, BMSCs were collected for examination and comparison between resveratrol-treated and vehicle-treated Zmpste24^−/− mice.

[2] = tested on: Zmpste24−/− mice; assay: BMSC colony-forming efficiency after in vivo treatment of Zmpste24−/− mice; design: species or system mouse; settings: NAC 1 mg/ml in drinking water
Experimental: as §1
Bone marrow stromal cells were isolated and cultured according to modified protocol (Enumeration and Expansion of Mouse Mesenchymal Progenitor Cells Using MESENCUILT®, Stemcell Technologies, Canada). Briefly, bone marrow cells were flushed out from femurs and tibias with α-MEM (Invitrogen, Carlsbad, Calif., USA) supplemented with 20% FBS, and plated in petri dishes. Non-adherent cells were removed on day 3 and medium was replaced every 3 days. […] Colonies containing more than 50 cells were counted. BMSC colony forming efficiency was calculated as number of colonies formed by […] bone marrow nucleated cells. […]

[3] = tested on: Zmpste24−/− mice; assay: HSC population in bone marrow of treated Zmpste24−/− mice (FACS); assay type: in vivo, mouse; settings: NAC 1 mg/ml in drinking water
Experimental: as §1, with “Zmpste24^-/-” for “Zmpste24^−/−”, “([…]” for “(Pendas”, “Test. To analyze hematopoietic stem cells, mononucleated cells were collected by flushing femurs and tibias with staining medium (HBSS supplemented with 2% FBS) and stained with biotin-coupled lineage markers, Biotin-Flt3, PE-Sca-1, APC-c-Kit, and then SAv-PerCP. FACS profile analyses were performed using a BD FACSCalibur.” for “Test.”

[4] = tested on: Zmpste24−/− HSCs; assay: ROS level in freshly isolated HSCs (DCF-DA, FACS); assay type: in vivo, mouse; settings: NAC 1 mg/ml in drinking water; elevated in Zmpste24−/− HSCs
Experimental: as §1
To purify HSCs, red blood cells were lysed using NH4Cl before surface-marker staining, and HSCs were then sorted with a BD FACSVantage SE. Sorted HSCs were incubated with 5 μM DCF-DA at 37° C. for 30 min and analyzed by FACS at 488-nm excitation and 525-nm emission to determine the ROS level.

[5] = molecular target: T1, SIRT1 (Homo sapiens, UniProt Q96EB6); settings: Beher 2009; Dai 2010; Pacholec 2010; cited from earlier work
T1 sequence (Q96EB6 1-747): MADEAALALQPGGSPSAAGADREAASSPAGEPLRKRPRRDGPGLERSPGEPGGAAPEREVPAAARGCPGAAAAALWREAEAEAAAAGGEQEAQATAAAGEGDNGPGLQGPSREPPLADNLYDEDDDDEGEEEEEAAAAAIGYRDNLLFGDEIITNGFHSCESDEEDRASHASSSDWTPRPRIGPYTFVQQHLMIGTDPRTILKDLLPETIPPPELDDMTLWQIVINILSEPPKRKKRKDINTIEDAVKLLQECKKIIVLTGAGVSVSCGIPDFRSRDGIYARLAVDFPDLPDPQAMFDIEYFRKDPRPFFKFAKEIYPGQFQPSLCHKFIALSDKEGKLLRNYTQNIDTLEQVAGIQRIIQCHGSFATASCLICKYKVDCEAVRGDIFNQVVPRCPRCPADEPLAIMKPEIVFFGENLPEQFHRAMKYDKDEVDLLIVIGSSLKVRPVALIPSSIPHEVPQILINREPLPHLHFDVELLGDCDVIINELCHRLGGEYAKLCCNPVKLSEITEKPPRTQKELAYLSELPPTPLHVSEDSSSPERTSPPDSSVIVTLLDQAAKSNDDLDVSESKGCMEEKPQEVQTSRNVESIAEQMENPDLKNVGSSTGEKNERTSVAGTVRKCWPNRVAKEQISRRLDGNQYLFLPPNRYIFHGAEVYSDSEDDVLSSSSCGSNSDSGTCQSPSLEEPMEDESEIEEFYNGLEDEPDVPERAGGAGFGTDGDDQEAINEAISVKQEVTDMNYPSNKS

[6] = molecular target: T1, SIRT1; assay: BIOMOL SIRT1 Fluorimetric Drug Discovery Kit (BSDK) deacetylase assay on fluorophore-conjugated acetyl p53 peptide; assay type: biochemical; design: purchased Biomol (Hamburg, Germany)
Experimental: (§2) SIRT1 deacetylation assay on fluorophore-conjugated synthetic p53 peptide was performed with SIRT1 Fluorimetric Drug Discovery Kit (Biomol, Hamburg, Germany) according to the manufactory's instruction. Cells were fractionated as described above except that protease inhibitors were NOT included and the nuclear matrix fraction was suspended into the assay buffer provided by the supplier. Different cell fractions or recombinant human lamin A (rhLamin A, Diatheva, Italy) were added in the reaction mix of SIRT1 Fluorimetric Drug Discovery Kit, incubated for 20 min at 37° C., and then the reaction was stopped and fluorescent signal was detected. SIRT1 deacetylase activity on native target was assayed using SIRT1 assay Kit from Sigma (USA). Constructs encoding FLAG-p53 and HA-p300 were co-transfected into HEK293 cells; FLAG-p53 was immunoprecipitated by anti-FLAG M2 Agarose (Sigma) followed by elution with FLAG peptide (Sigma). Purified acetyl FLAG-p53 was incubated with recombinant human SIRT1 (rhSIRT1) and NAD+ for 30 min at 37° C., in the presence or absence of rhLamin A or resveratrol. The acetylation level of FLAG-p53 was determined by Western blotting with pan anti acetyl lysine antibodies.
To test this hypothesis, in vitro deacetylase activity of rhSIRT1 by a BIOMOL® SIRT1 Fluorimetric Drug Discovery Kit (BSDK) was quantified in the presence or absence of NM derived from wild-type or Zmpste24−/− BMSCs.
This Example further investigates whether lamin A acts as an activator of SIRT1. In mammalian cells, lysine acetyltransferase p300 and SIRT1 mediate the acetylation and deacetylation of p53 on residue K382 (Gu and Roeder, 1997). BSDK utilizes fluorophore-conjugated acetyl p53 peptide as target (see Materials and Methods).

[7] = molecular target: T2, rhSIRT1 binding to rhLamin A (Homo sapiens, UniProt Q96EB6); assay: Pull-down of rhSIRT1 with rhLamin A in test tube (anti-lamin A immunoprecipitation); settings: in a test tube
T2 construct: purchased Diatheva, Italy (rhLamin A)
T2 sequence (Q96EB6 1-747): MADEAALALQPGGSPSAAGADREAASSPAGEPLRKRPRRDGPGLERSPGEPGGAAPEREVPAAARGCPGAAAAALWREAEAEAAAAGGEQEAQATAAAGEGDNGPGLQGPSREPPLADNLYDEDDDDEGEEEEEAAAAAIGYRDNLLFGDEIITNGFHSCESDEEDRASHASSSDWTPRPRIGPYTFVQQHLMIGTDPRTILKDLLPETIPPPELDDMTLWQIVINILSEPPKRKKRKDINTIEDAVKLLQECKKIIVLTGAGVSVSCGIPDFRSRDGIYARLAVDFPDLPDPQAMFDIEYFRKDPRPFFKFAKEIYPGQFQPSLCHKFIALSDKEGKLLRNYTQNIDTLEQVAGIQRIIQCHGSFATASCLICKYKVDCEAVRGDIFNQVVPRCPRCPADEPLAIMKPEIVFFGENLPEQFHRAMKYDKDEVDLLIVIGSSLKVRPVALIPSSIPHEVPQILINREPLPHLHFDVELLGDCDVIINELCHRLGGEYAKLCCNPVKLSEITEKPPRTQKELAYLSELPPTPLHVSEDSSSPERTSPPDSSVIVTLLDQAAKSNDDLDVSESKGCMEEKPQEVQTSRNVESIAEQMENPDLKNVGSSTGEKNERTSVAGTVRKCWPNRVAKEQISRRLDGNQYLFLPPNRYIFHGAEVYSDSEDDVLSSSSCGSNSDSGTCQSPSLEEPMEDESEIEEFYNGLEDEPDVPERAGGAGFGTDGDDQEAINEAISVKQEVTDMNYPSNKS
T2 sequence (P02545 1-664 partner): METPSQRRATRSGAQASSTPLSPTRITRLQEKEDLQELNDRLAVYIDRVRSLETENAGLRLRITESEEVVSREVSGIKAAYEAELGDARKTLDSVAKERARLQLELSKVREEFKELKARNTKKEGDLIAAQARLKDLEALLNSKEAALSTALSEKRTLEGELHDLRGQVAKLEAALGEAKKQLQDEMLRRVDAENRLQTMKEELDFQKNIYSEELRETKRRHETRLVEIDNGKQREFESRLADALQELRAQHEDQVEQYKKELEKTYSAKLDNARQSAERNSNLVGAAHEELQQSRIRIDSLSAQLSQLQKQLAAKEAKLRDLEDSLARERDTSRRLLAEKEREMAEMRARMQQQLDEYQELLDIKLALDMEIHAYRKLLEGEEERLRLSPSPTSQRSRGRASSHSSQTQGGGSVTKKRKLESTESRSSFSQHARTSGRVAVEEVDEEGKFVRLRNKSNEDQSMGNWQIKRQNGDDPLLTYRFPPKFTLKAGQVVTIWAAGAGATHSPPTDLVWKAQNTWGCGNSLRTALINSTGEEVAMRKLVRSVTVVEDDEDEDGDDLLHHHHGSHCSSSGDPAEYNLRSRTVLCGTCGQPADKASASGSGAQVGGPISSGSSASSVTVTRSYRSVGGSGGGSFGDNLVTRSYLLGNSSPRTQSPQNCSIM
Experimental: For co-immunoprecipitation, cells were lysed into pre-chilled RIPA buffer containing 300 mM or 500 mM NaCl and protease inhibitors. Primary antibodies or appropriate control IgGs were added to the lysate and incubated for 2 h on a rocking platform at 4° C. before Agarose beads were added and incubated O/N. The beads were washed twice with RIPA buffer, resuspended into Laemmli buffer and boiled, and protein suspension was collected by centrifugation and stored for further analysis.
Consistently, ectopic EGFP-SIRT1 and DsRed-lamin A co-existed in the nuclear interior (FIG. 1D). This interaction seems specific to nuclear SIRT1 as neither cytoplasmic SIRT1 nor mitochondrial SIRT5 was detected in the anti GFP-lamin A immunoprecipitates (FIG. 6C). In addition, SIRT1 physically interacts with lamin A as recombinant human SIRT1 (rhSIRT1) was pulled down by recombinant human lamin A (rhLamin A) in a test tube (FIG. 1E).

[8] = molecular target: T1, SIRT1; assay: SIRT1 deacetylation assay on native full-length acetyl FLAG-p53 (Western blotting, anti-acetyl lysine); assay type: biochemical; design: purchased Biomol (Hamburg, Germany)
Experimental: as §2
To further test the effect of rhLamin A on the native target of SIRT1, acetyl p53 was purified by anti-FLAG immunoprecipitation in HEK293 cells ectopically expressing FLAG-p53 and p300, and SIRT1 deacetylation assay was performed as described in Materials and Methods.

Which results are given for CC(=O)N[C@@H](CS)C(=O)O [N-acetyl Cysteine]?
lifespan [1]: extended lifespan to a similar extent as resveratrol did; decline in BMSCs [2]: rescued; decline in HSCs [3]: rescued; ROS level in HSCs [4]: rescued ROS level

Which “SIRT1 activation towards full-length native target proteins, including p53 and PGC-1α” value [5] does the source give for O=C(Nc1ccccc1-c1cn2c(CN3CCNCC3)csc2n1)c1cnc2ccccc2n1 [SRT1720] here?
The value was “do not confer any SIRT1 activation”.

With Cc1ccc(C(=O)Nc2ccc(S(=O)(=O)O)c3cc(S(=O)(=O)O)cc(S(=O)(=O)O)c23)cc1NC(=O)c1cccc(NC(=O)Nc2cccc(C(=O)Nc3cc(C(=O)Nc4ccc(S(=O)(=O)O)c5cc(S(=O)(=O)O)cc(S(=O)(=O)O)c45)ccc3C)c2)c1 [Suramin] as the molecule, how does the “Lamin A-stimulated SIRT1 deacetylase activity” value ([6]; SIRT1 inhibitor added) read?
Its value is “completely abolished”.

B1: rhLamin A: recombinant human lamin A (rhLamin A, Diatheva, Italy) (protein, listed as Homo sapiens)
chain: METPSQRRATRSGAQASSTPLSPTRITRLQEKEDLQELNDRLAVYIDRVRSLETENAGLRLRITESEEVVSREVSGIKAAYEAELGDARKTLDSVAKERARLQLELSKVREEFKELKARNTKKEGDLIAAQARLKDLEALLNSKEAALSTALSEKRTLEGELHDLRGQVAKLEAALGEAKKQLQDEMLRRVDAENRLQTMKEELDFQKNIYSEELRETKRRHETRLVEIDNGKQREFESRLADALQELRAQHEDQVEQYKKELEKTYSAKLDNARQSAERNSNLVGAAHEELQQSRIRIDSLSAQLSQLQKQLAAKEAKLRDLEDSLARERDTSRRLLAEKEREMAEMRARMQQQLDEYQELLDIKLALDMEIHAYRKLLEGEEERLRLSPSPTSQRSRGRASSHSSQTQGGGSVTKKRKLESTESRSSFSQHARTSGRVAVEEVDEEGKFVRLRNKSNEDQSMGNWQIKRQNGDDPLLTYRFPPKFTLKAGQVVTIWAAGAGATHSPPTDLVWKAQNTWGCGNSLRTALINSTGEEVAMRKLVRSVTVVEDDEDEDGDDLLHHHHGSHCSSSGDPAEYNLRSRTVLCGTCGQPADKASASGSGAQVGGPISSGSSASSVTVTRSYRSVGGSGGGSFGDNLVTRSYLLGNSSPRTQSPQNCSIM
With B1 as the molecule, how does the “rhSIRT1 pulled down by rhLamin A” value [7] read?
The value was “pulled down”.

And the “deacetylase activity of rhSIRT1 on acetyl p53 peptide” value ([6]; in the presence of rhLamin A, molar ratio rhLamin A to rhSIRT1 0.5, 1.0, 2.0, 4.0)?
Its value is “increased in a dose-dependent manner”.

What about the “decrease in FLAG-p53 acetylation level” value ([8]; rhLamin A-rhSIRT1 complex compared with rhSIRT1 only) of the same molecule?
The value was “around 20%”.

B2: LA-80: synthetic peptide of carboxyl 80 aa of lamin A (peptide)
peptide: GSHCSSSGDPAEYNLRSRTVLCGTCGQPADKASASGSGAQVGGPISSGSSASSVTVTRSYRSVGGSGGGSFGDNLVTRSY
What does the source list for B2?
activating potential on SIRT1 towards fluorophore-conjugated synthetic peptide (Ac-Arg-His-Lys-LysAc-AMC) ([6]; compared with lamin A): much higher activating potential; activating potential on SIRT1 towards full-length acetylated FLAG-p53 protein ([8]; compared with lamin A): much higher activating potential

— patent US10086039B2, “Lamin A, an activator of longevity/anti-aging SIRT1 protein” (THE UNIVERSITY OF HONG KONG, priority 2012, dated 2018)
